Key:
Format in all cases: biochemical
[1] = target: T1, B-Raf V600E (Homo sapiens, UniProt P15056, V600E); assay: AlphaScreen kinase assay, B-Raf V600E; settings: read-out: IC50, activity toward kinase B-Raf V600E
T1 construct: P4254. pFastBacBD-CDC37 BRAF D437-K722-X, V600E; His6 with pFastBac HT leader (TEV site) (N); made in house; host or cells: Sf9 (baculovirus; chaperone CDC37 co-expressed)

[2] = target: T2, Jnk3 (Homo sapiens, UniProt P53779); assay: AlphaScreen kinase assay, Jnk3; settings: read-out: IC50, activity toward kinase Jnk3
T2 construct: purchased Upstate Biotechnology
T2 sequence (P53779 whole entry): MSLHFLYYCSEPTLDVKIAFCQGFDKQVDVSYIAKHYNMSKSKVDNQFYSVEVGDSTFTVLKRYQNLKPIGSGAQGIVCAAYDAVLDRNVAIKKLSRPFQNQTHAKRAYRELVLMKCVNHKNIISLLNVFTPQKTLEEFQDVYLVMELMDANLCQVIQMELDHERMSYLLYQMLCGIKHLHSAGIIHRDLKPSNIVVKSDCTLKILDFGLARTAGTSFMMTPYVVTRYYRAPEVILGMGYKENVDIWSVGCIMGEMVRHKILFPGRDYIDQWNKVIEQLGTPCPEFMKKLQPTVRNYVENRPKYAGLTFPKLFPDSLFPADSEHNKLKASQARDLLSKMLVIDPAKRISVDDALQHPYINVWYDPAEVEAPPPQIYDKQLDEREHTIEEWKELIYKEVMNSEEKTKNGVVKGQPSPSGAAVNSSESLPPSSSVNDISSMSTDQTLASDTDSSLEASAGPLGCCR

[3] = target: T3, Fms (Homo sapiens, UniProt P07333); assay: AlphaScreen kinase assay, Fms; settings: read-out: IC50, activity toward kinase Fms
T3 construct: purchased Upstate Biotechnology
T3 sequence (P07333 20-972): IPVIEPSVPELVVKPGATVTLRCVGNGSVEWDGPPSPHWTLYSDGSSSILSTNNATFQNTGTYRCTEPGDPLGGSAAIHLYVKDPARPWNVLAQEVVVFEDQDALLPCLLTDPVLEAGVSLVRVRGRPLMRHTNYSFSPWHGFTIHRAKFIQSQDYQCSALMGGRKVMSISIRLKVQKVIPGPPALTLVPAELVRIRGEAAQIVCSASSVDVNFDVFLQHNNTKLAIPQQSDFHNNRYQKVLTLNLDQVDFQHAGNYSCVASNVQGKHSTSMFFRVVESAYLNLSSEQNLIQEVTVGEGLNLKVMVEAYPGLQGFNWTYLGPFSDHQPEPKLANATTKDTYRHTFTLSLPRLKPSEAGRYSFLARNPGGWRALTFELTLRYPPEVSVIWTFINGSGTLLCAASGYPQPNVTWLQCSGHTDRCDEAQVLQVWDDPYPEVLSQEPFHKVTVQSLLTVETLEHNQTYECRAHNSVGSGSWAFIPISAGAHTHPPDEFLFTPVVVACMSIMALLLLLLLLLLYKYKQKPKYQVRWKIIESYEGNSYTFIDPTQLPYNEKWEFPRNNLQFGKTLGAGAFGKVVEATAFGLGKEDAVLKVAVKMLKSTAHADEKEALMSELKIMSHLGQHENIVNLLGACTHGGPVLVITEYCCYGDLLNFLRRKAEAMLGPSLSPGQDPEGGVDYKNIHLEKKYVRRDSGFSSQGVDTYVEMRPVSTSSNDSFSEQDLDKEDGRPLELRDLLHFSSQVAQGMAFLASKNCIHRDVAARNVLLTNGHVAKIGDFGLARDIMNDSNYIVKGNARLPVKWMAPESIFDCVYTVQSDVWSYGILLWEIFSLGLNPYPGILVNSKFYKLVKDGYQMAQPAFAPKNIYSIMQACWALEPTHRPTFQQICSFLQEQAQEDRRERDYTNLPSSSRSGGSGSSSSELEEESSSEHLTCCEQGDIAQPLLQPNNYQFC
Description: (§1) AlphaScreen assay was used to screen additional kinases. The assay is similarly dependent on the phosphorylation of a peptide substrate. In this assay, an antibody that recognizes phosphorylated substrate is bound to an acceptor bead. The peptide substrate is attached to biotin, which binds to a donor head that contains streptavidin. Thus phosphorylated substrate is bound by antibody and streptavidin, bringing the donor and acceptor heads into close proximity when kinase is not inhibited. The donor produces singlet oxygen which results in emission from the acceptor when they are in close proximity. Conversely, when kinase is inhibited, the donor and acceptor beads are not associated and the emission from the acceptor is reduced.
(§2) AlphaScreen assays were done using compounds dissolved in DMSO to a concentration of 20 mM. The compounds were diluted accordingly to the desired final concentrations in each sample well, using 1:3 serial dilution for a total of 8 concentration points. Plates were prepared such that each kinase reaction is 20 μl in 1× kinase buffer, 5% DMSO and 10 μM ATP. After incubation of the kinase reaction for 1 hour at room temperature, 5 μl of donor beads in stop buffer (50 mM EDTA in 1× kinase buffer) was added, the sample was mixed and incubated for 20 minutes at room temperature before adding 5 μl of acceptor beads in stop buffer. The samples were incubated for 60 minutes at room temperature and the signal per well was read on AlphaQuest reader.

[4] = target: T4, Jnk1 (Homo sapiens, UniProt P45983); assay: AlphaScreen kinase assay, Jnk1; settings: read-out: IC50, activity toward kinase Jnk1
T4 construct: purchased Upstate Biotechnology
T4 sequence (P45983 whole entry): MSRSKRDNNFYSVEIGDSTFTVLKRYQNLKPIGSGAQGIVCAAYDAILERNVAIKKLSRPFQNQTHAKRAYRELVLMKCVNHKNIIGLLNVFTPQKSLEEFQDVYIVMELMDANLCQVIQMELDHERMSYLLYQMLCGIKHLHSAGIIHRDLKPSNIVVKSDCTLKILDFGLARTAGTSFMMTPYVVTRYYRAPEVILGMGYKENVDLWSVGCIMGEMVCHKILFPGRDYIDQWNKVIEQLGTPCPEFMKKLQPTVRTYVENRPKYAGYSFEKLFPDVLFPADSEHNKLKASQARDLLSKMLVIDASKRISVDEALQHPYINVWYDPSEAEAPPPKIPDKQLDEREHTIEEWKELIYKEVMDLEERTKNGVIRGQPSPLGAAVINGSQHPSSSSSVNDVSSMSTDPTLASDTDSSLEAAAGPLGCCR

[5] = target: T5, B-Raf (Homo sapiens, UniProt P15056); assay: AlphaScreen kinase assay, B-Raf; settings: read-out: IC50, activity toward kinase B-Raf
T5 construct: purchased Upstate Biotechnology
T5 sequence (P15056 whole entry): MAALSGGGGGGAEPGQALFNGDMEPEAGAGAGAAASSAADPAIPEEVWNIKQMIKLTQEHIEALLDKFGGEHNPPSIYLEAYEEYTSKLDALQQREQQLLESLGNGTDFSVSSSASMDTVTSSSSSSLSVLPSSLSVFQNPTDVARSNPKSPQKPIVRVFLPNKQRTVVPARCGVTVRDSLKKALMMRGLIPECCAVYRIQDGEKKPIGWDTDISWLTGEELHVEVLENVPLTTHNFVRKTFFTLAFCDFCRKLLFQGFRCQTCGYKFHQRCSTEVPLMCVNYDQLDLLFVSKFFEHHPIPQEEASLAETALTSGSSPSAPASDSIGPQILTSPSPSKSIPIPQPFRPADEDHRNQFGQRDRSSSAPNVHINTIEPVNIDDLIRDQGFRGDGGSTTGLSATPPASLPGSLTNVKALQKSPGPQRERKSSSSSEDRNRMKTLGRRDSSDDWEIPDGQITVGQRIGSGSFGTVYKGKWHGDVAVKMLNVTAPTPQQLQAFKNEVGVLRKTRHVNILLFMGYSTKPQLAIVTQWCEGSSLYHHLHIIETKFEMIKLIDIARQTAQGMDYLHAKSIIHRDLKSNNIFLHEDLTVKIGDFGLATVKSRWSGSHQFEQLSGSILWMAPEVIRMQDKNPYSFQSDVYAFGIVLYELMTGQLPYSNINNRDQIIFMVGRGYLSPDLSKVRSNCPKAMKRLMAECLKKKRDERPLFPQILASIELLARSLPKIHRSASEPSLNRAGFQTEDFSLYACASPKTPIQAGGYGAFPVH

[6] = target: T6, FGFR1 (Homo sapiens, UniProt P11362, C488A/C584S); assay: AlphaScreen kinase assay, FGFR1; settings: read-out: IC50, activity toward kinase FGFR
T6 construct: P1351.pET N6 BI-PTP FGFR A458-E765-X C488A, C584S; made in house; host or cells: E. coli (PTP1B co-expressed)
T6 sequence (P11362 458-765 C488A/C584S): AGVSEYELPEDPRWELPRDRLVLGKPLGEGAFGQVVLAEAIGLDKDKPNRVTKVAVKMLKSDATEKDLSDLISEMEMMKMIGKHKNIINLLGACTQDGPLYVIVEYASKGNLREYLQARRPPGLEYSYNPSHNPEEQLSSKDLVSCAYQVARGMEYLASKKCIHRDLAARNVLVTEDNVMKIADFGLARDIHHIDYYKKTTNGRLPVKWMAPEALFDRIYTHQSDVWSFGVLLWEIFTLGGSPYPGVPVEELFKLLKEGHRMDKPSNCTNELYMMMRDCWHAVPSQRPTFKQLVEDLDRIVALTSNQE

[7] = target: T7, Ret (Homo sapiens, UniProt P07949); assay: AlphaScreen kinase assay, Ret; settings: read-out: IC50, activity toward kinase Ret
T7 construct: P1378.pET-SF BI-PTP RET H661-R1012 HIS; made in house
T7 sequence (P07949 with tags, fused parts or gaps): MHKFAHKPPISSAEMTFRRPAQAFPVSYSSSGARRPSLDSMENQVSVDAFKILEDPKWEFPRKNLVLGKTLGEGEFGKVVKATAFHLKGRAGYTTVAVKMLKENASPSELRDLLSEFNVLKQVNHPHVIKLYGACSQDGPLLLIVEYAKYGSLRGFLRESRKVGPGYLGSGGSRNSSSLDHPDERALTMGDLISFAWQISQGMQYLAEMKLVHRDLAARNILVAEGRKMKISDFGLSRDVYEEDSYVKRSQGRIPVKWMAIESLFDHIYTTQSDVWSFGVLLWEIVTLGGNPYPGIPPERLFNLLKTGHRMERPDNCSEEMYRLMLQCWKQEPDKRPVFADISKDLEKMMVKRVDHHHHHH

[8] = target: T8, c-Raf-1 (Homo sapiens, UniProt P04049); assay: AlphaScreen kinase assay, c-Raf-1; settings: read-out: IC50, activity toward kinase c-Raf-1
T8 construct: purchased Upstate Biotechnology
T8 sequence (P04049 whole entry): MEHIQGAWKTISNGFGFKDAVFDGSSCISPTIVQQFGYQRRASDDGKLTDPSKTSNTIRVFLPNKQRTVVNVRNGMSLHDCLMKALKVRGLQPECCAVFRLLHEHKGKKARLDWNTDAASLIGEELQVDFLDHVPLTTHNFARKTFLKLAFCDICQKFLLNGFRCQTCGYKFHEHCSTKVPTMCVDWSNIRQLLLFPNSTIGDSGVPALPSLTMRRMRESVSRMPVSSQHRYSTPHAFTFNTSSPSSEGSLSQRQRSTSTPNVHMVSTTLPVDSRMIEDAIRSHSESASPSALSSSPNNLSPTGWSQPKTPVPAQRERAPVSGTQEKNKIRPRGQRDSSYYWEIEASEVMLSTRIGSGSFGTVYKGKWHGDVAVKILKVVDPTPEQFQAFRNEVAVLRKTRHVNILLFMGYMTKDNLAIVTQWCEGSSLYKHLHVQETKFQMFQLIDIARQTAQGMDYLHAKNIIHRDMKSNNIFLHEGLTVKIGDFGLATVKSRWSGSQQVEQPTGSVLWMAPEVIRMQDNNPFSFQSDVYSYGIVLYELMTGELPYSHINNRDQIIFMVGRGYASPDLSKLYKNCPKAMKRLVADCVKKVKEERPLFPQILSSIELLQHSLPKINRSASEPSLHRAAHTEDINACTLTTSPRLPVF

[9] = target: T9, Flt1 (Homo sapiens, UniProt P17948); assay: AlphaScreen kinase assay, Flt1; settings: read-out: IC50, activity toward kinase Flt1
T9 construct: P1826.pETN6 BI-PTP FLT1 M799-D1165-X WT; His6 (N); made in house; host or cells: E. coli (PTP1B co-expressed)
T9 sequence (P17948 with tags, fused parts or gaps): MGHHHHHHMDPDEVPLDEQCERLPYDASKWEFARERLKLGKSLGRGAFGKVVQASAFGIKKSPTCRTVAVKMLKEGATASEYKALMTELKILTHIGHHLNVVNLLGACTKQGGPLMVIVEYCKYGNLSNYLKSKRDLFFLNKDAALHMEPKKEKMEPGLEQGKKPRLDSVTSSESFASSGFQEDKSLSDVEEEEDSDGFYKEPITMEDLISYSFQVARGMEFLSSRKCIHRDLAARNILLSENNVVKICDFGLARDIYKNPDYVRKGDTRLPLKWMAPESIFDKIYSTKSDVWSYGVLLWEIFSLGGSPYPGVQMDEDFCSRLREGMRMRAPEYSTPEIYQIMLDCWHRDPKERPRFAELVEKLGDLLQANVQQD
Description: as §1, §2

[10] = target: T10, Kit (Homo sapiens, UniProt P10721); assay: AlphaScreen kinase assay, Kit; settings: read-out: IC50, activity toward kinase Kit
T10 construct: P1332.N6 BI PTP KIT M552-K948-X COD; His6 (N); made in house; host or cells: E. coli (PTP1B co-expressed)
T10 sequence (P10721 with tags, fused parts or gaps): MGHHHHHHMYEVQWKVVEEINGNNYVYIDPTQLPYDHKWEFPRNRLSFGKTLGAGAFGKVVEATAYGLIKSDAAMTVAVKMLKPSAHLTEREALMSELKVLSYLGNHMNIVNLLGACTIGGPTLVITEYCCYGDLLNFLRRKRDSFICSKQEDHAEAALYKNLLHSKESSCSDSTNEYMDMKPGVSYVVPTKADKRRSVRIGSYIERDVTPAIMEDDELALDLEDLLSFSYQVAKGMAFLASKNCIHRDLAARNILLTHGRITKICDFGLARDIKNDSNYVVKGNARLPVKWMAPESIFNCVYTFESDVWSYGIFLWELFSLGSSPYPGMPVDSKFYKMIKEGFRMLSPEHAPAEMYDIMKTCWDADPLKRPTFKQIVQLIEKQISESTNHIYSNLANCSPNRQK

[11] = target: T11, Src (Homo sapiens, UniProt P12931); assay: AlphaScreen kinase assay, Src; settings: read-out: IC50, activity toward kinase Src
T11 construct: P1144. pET-N6 BI-PTP SRC V86-L536-X; made in house
T11 sequence (P12931 with tags, fused parts or gaps): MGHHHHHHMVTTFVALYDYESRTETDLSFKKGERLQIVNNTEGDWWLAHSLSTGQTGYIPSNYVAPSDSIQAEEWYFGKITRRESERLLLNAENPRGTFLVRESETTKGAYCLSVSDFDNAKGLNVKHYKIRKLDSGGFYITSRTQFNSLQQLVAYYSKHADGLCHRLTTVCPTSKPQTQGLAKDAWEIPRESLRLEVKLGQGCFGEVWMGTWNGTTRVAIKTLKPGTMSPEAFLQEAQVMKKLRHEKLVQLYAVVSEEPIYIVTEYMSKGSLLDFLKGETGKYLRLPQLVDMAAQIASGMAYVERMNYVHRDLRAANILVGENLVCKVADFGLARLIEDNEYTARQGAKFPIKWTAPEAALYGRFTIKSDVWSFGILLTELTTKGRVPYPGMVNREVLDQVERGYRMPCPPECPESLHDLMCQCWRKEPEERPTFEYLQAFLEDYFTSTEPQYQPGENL
Description: as §1, §2

Measured: IC50

T1 sequence (P15056 with tags, fused parts or gaps V600E): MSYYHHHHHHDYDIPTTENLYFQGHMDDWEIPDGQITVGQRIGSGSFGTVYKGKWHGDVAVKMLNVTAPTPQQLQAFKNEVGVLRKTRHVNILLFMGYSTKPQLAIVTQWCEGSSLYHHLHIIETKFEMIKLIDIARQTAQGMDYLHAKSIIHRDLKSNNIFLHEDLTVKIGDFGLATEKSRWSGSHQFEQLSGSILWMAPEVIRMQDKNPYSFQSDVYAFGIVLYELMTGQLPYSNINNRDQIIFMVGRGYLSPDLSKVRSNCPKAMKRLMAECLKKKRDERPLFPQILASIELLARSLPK

O=C(Nc1cccc(C(=O)c2c[nH]c3ncc(Cl)cc23)c1)Nc1ccon1 [Compound P-1775, 1-[3-(5-Chloro-1H-pyrrolo[2,3-b]pyridine-3-carbonyl)-phenyl]-3-isoxazol-3-yl-urea]
≤ 10 µM: [1] | [2] | [3] | [4] | [5]

CS(=O)(=O)Nc1cccc(-c2cnc3[nH]cc(C(=O)c4c(Cl)ccc(NS(C)(=O)=O)c4F)c3c2)c1 [Compound P-0745, N-{4-Chloro-2-fluoro-3-[5-(3-methanesulfonylamino-phenyl)-1H-pyrrolo[2,3-b]pyridine-3-carbonyl]-phenyl}-methanesulfonamide]
≤ 10 µM: [6] | [1] | [7] | [4] | [5] | [8]

CCCS(=O)(=O)Nc1cccc(C(=O)c2c[nH]c3ncc(-c4ccccc4)cc23)c1C [Compound P-1610]
not listed: [7] | [8] | [10] | [11]
≤ 10 µM: all other assays above

CCCS(=O)(=O)Nc1ccc(F)c(C(=O)c2c[nH]c3ncc(-c4ccc(F)cc4)cc23)c1F [Compound P-1260, Propane-1-sulfonic acid {2,4-difluoro-3-[5-(4-fluoro-phenyl)-1H-pyrrolo[2.3 b]pyridine-3-carbonyl]-phenyl}-amide]
not listed: [2] | [7] | [11]
≤ 10 µM: all other assays above

O=C(O)COc1ccc(F)c(Cc2c[nH]c3ncc(-c4cccnc4)cc23)c1F [Compound P-1468, [2,4-difluoro-3-(5-pyridin-3-yl-1H-pyrrolo[2,3-b]pyridin-3-ylmethyl)-phenoxy]-acetic acid]
≤ 10 µM: [6] | [9] | [10] | [2] | [3] | [4]

NC(=O)c1cccc(-c2cnc3[nH]cc(C(=O)c4cccc(N)c4)c3c2)c1 [Compound P-1592]
≤ 10 µM: [6] | [9] | [1] | [2] | [4] | [5]

COc1cccc(NC(=O)Nc2cccc(C(=O)c3c[nH]c4ncccc34)c2)c1 [Compound P-1707, 1-(3-Methoxy-phenyl)-3-[3-(1H-pyrrolo[2,3-b]pyridine-3-carbonyl)-phenyl]-urea]
≤ 10 µM: [10] | [1] | [2] | [3] | [4] | [5]

CCCCN(CCCC)C(=O)n1ccc2c(C(=O)c3c[nH]c4ncc(-c5cccnc5)cc34)cccc21 [Compound P-1636, 4-(5-pyridin-3-yl-1H-pyrrolo[2,3-b]pyridine-3-carbonyl)-indole-1-carboxylic acid dibutylamide]
≤ 10 µM: [1] | [2] | [3] | [4] | [5]

O=C(c1c(Cl)cccc1Cl)c1c[nH]c2ncccc12 [Compound P-1476]
≤ 10 µM: [6] | [10] | [3] | [11]

CCCCNC(=O)Nc1ccc(F)c(C(=O)c2c[nH]c3ncc(-c4cccnc4)cc23)c1 [Compound P-1534, 1-Butyl-3-[4-fluoro-3-(5-pyridin-3-yl-1H-pyrrolo[2,3-b]pyridine-3-carbonyl)-phenyl]-urea]
not listed: [7] | [8] | [11]
≤ 10 µM: all other assays above

O=C(c1c[nH]c2ncc(-c3ccc(Cl)cc3)cc12)c1cccc2c1ccn2C(=O)NCc1ccccc1 [Compound P-1618, 4-[5-(4-Chloro-phenyl)-1H-pyrrolo[2,3-b]pyridine-3-carbonyl]-indole-1-carboxylic acid benzylamide]
≤ 10 µM: [9] | [2] | [3] | [4]

O=[N+]([O-])c1cccc(C(O)c2c[nH]c3ncc(-c4cccnc4)cc23)c1 (centres unmarked) [Compound P-1399, (3-nitro-phenyl)-(5-pyridin-3-yl-1H-pyrrolo[2,3-b]pyridin-3-yl)-methanol]
≤ 10 µM: [6] | [10] | [1] | [3] | [11]

O=C(O)/C=C/c1cccc(-c2cnc3[nH]cc(C(=O)c4ccc(Cl)cc4Cl)c3c2)c1 [Compound P-1585]
≤ 10 µM: [6] | [9] | [1] | [2] | [4] | [5]

Cc1cccc(C)c1C(=O)c1c[nH]c2ncccc12 [Compound P-1484]
≤ 10 µM: [10] | [11]

CCCS(=O)(=O)Nc1ccc(F)c(Cc2c[nH]c3ncc(NCCN4CCN(C)CC4)cc23)c1F [Compound P-1345]
≤ 10 µM: [6] | [1] | [11]

CCCS(=O)(=O)Nc1ccc(F)c(C(=O)c2c[nH]c3ncc(-c4ccc(C(N)=O)cc4)cc23)c1F [Compound P-1546, 4-{3-[2,6-Difluoro-3-(propane-1-sulfonylamino)-benzoyl]-1H-pyrrolo[2,3-b]pyridin-5-yl}-benzamide]
not listed: [7] | [11]
≤ 10 µM: all other assays above

O=C(Nc1cccc(C(=O)c2c[nH]c3ncccc23)c1)Nc1ccc(F)c(F)c1 [Compound P-1706, 1-(3,4-Difluoro-phenyl)-3-[3-(1H-pyrrolo[2,3-b]pyridine-3-carbonyl)-phenyl]-urea]
≤ 10 µM: [10] | [1] | [2] | [3] | [4] | [5]

c1ccc(Oc2cccc(Nc3c[nH]c4ncccc34)c2)cc1 [Compound P-1496, (3-Phenoxy-phenyl)-(1H-pyrrolo[2,3-b]pyridin-3-yl)-amine]
≤ 10 µM: [3] | [11]

COc1cccc(N(C)c2c[nH]c3ncccc23)c1 [Compound P-1506, (3-Methoxy-phenyl)-methyl-(1H-pyrrolo[2,3-b]pyridin-3-yl)-amine]
≤ 10 µM: [10] | [1] | [3] | [11]

CN(C)c1ccc(Nc2ccc3cc[nH]c3n2)cc1 [Compound P-1356, N,N-Dimethyl-N′-(1H -pyrrolo[2,3-b]pyridin-6-yl)-benzene-1,4-diamine]
≤ 10 µM: [2] | [4]

Nc1ccc(F)c(C(=O)c2c[nH]c3ncc(-c4ccccc4)cc23)c1 [Compound P-1577]
≤ 10 µM: [6] | [9] | [1] | [2] | [4] | [5]

CCCS(=O)(=O)Nc1ccc(F)c(C(=O)c2c[nH]c3ncc(-c4cccc(CN5CCOCC5)c4)cc23)c1F [Compound P-1878, Propane-1-sulfonic acid {2,4-difluoro-3-[5-(3-morpholin-4-ylmethyl-phenyl)-1H-pyrrolo[2,3-b]pyridine-3-carbonyl]-phenyl}-amide]
≤ 10 µM: [10] | [1] | [3] | [4] | [5] | [8]

Reference: patent US8415469B2, “Compounds and methods for kinase modulation, and indications therefor” (Plexxikon Inc., priority 2005, dated 2013)
